According to patent US20140179606A1, “LEFT VENTRICULAR DIASTOLIC FUNCTION IMPROVING AGENT” (priority 2011, published 2014):

Legend:
[1] = system: acute heart failure model; test: Evaluation of hemodynamics in acute heart failure model; format: in vivo, beagle; conditions: for Peak Negative dP/dt Change Ratio (%): indication of left ventricular diastolic function, 60 minutes after administration; for Peak Negative dP/dt Change Ratio (%) / Systemic Vascular Resistance Change Ratio (%) / Peak Positive dP/dt Change Ratio (%) / Left Ventricular End-Diastolic Pressure Change Ratio (%): continuous iv; for Peak Negative dP/dt Change Ratio (%) / Peak Positive dP/dt Change Ratio (%): two increasing doses; for Systemic Vascular Resistance Change Ratio (%): indication of afterload; for Peak Positive dP/dt Change Ratio (%): indication of left ventricular systolic function; for Left Ventricular End-Diastolic Pressure Change Ratio (%): indication of preload
Description: The acute heart failure model was produced by the following method. A male beagle (the weight was more than 10 kg) was anesthetized with pentobarbital sodium (30 mg/kg, intravenous administration), and then a tracheal catheter was introduced to the trachea and connected to a ventilator. The frequency of breath of the ventilator was set to 15 strokes per minute; the amount of ventilation was set to 20 mL/kg per stroke, and the respiration was controlled by using a mixed gas (Air:O2=3:0.2 as an indication). The animal was fixed with the lateral position and the hair of the left chest area, left and right femoral areas and cervical region was cut. Pentobarbital sodium (5 mg/kg/hr) was intravenously administered continuously from right cephalic vein, and the anesthesia was continued. The chest was opened at the left fourth rib, and the ascending aorta origin was exfoliated. Lactated Ringer's solution was intravenously administered continuously from the catheter inserted to the left femoral vein (5 mL/min). Further, in order to prevent the arrhythmia from occurring, propranolol hydrochloride (0.3 mL/min) was administered continuously together with the volume overload (mixed with lactated Ringer's solution) until the completion of the experiment. The left anterior descending coronary artery (LAD) was ligated 30 minutes after the administration of lactated Ringer's solution. After the hemodynamics became stable, methoxamine hydrochloride was administered continuously from the left femoral vein. In order to increase the systemic vascular resistance and thus decrease the cardiac output, methoxamine hydrochloride was maintained at the volume of 5 to 10 μg/kg/min so that the cardiac output decreased by 20% or more in comparison with the cardiac output before the volume overload, and methoxamine hydrochloride was administered continuously until the completion of the experiment.
From the point, at which the cardiac output decreased by 20% or more after the initiation of the continuous administration of methoxamine hydrochloride in comparison with the cardiac output before the administration of lactated Ringer's solution and other hemodynamics became stable, physiological saline (0.3 mL/min) was administered from the right femoral vein for 30 minutes (preceding phase of administration). Then, the compound A, (11α,13E,15α)-9-oxo-11,15-dihydroxy-16-(3-methoxymethylphenyl)-17,18,19,20-tetranor-5-tiaprost-13-enoic acid methyl ester (the EP4 agonist described in Example 1 of WO2000/003980, abbreviated to […] below), and carperitide (atrial natriuretic peptide), nitroglycerin (a vasodilator), nicorandil (a vasodilator) and milrinone (a phosphodiesterase III inhibitor: a compound having a cardiac effect and a vasodilation effect), which are existing agents for treating heart failure, were each administered for 30 minutes with increasing the dose gradually from the right femoral vein at the doses in the following table. The administered groups (four examples each) and the doses are shown below.
The measurement of cardiac hemodynamics was conducted every 10 minutes both during the preceding phase of administration and during the continuous administration of each dose.
Through the catheter introducer inserted to the right femoral artery, a pig tale catheter was introduced and indwelled in the left ventricle and connected to a disposable blood pressure transducer, and the left ventricular pressure (LVP) was measured through an amplifier for the measurement. […]

[2] = system: Dahl rat heart failure model; test: Cardiac function and survival rate using Dahl rat (hypertensive / chronic heart failure model); format: in vivo; conditions: oral, two times a day for 90 days, compound A 300 μg/kg, milrinone 1000 μg/kg; for survival rate: FIG. 2; for left ventricular diastolic wall strain (DWS) index: FIG. 3
Description: A model of hypertensive heart failure, which is diastolic heart failure, was prepared by feeding solid feed for high salt load rat (corresponding to 8% salt) to 47-day-old male DIS/Eis rats (Dahl rats). Solid feed for normal feed rat (corresponding to 0.3% salt) was fed to a normal control group (10 examples).
The test compounds were orally administered repeatedly for 90 days two times a day with the dose of 5 mL/kg using a stomach tube to 13-week-old Dahl rats. The dose of the compound A was 300 μg/kg and the dose of milrinone was 1000 μg/kg (30 examples each).
The cardiac functions were measured with using an ultrasound imaging device under 2% isoflurane anesthesia by a general anesthesia device for an animal before the administration (12 weeks old: grouping value), on the 45th day of the administration and the 91st day of the administration. The hair of the chest area of a rat was removed and the changes in the left ventricular end-diastolic dimension, the left ventricular end-systolic dimension, the end-diastolic left ventricular anterior wall thickness, the end-diastolic left ventricular posterior wall thickness, the end-systolic left ventricular posterior wall thickness and the left ventricular posterior epicardial surface were measured with placing a linear probe on the chest area with M-mode. Further, the left ventricular ejection fraction (LVEF) and the left ventricular diastolic wall strain (DWS) index as the indication of left ventricular diastolic function were calculated.
The general state was observed once or twice a day throughout the experiment period, and dead or alive was confirmed and the general symptoms were recorded.

[3] = system: normal dog; test: Left ventricular action in a normal dog; format: in vivo
Description: From the above results, it was considered that milrinone is not always appropriate for administering to a diastolic heart failure patient with normal systolic function because milrinone has a strong cardiotonic action, while the compound A selectively improves left ventricular diastolic function as compared with the effect to improve systolic function and thus is also effective for a diastolic heart failure patient with normal systolic function as well as a systolic heart failure patient in which both diastolic function and systolic function are impaired.

[4] = Toxicity, repeated oral administration to a dog for four weeks; format: in vivo; conditions: dose up to 30 times the dose showing vasodilation effect on single administration
Description: Toxicity of the compound used for the agent of present invention is very low, and the compound is safe enough to be used as a medicine.

Row | SMILES | Peak Negative dP/dt Change Ratio (%) [1] [%] | PaO2 (arterial oxygen pressure) change ratio ([1]; continuous iv 3, 10 ng/kg/min) [%] | increase of cardiac output ([1]; continuous iv 3, 10 ng/kg/min) | urine volume change ratio ([1]; continuous iv 3, 10 ng/kg/min) [%] | Systemic Vascular Resistance Change Ratio (%) [1] [%] | Peak Positive dP/dt Change Ratio (%) [1] [%] | Left Ventricular End-Diastolic Pressure Change Ratio (%) [1] [%] | survival rate [2] | left ventricular diastolic wall strain (DWS) index [2] | left ventricular diastolic / systolic action in a normal dog [3] | toxicity [4]
1 | CC[C@H](C)[C@@H]1NC(=O)[C@H](CCCNC(=N)N)NC(=O)[C@H](CC(=O)O)NC(=O)[C@H](CCSC)NC(=O)[C@H](CCCNC(=N)N)NC(=O)CNC(=O)CNC(=O)[C@H](Cc2ccccc2)NC(=O)[C@@H](NC(=O)[C@H](CO)NC(=O)[C@H](CO)NC(=O)[C@H](CCCNC(=N)N)NC(=O)[C@H](CCCNC(=N)N)NC(=O)[C@H](CC(C)C)NC(=O)[C@@H](N)CO)CSSC[C@@H](C(=O)N[C@@H](CC(N)=O)C(=O)N[C@@H](CO)C(=O)N[C@@H](Cc2ccccc2)C(=O)N[C@@H](CCCNC(=N)N)C(=O)N[C@@H](Cc2ccc(O)cc2)C(=O)O)NC(=O)CNC(=O)[C@H](CC(C)C)NC(=O)CNC(=O)[C@H](CO)NC(=O)[C@H](CCC(N)=O)NC(=O)[C@H](C)NC(=O)CNC1=O [Carperitide, carperitide] | −6 |  |  |  |  |  |  |  |  |  | 
2 | O=C(O)CCCSCCN1C(=O)CC[C@@H]1/C=C/[C@@H](O)Cc1ccc(F)cc1 [Compound A, 4-[(2-{(2R)-2-[(1E,3S)-4-(4-fluorophenyl)-3-hydroxy-1-buten-1-yl]-5-oxo-1-pyrrolidinyl}ethyl)thio]butanoic acid] | 48 | 111.5 | about 60% | 145.4 | −34 | 16 | −42 | drastically improved the survival rate | remarkably improved DWS | did not show left ventricular diastolic action or left ventricular systolic action | not found to be toxic
3 | COCc1cccc(CC(O)/C=C/C2C(O)CC(=O)C2CCSCCCC(=O)OC)c1 (stereo not drawn) [Compound B, (11α,13E,15α)-9-oxo-11,15-dihydroxy-16-(3-methoxymethylphenyl)-17,18,19,20-tetranor-5-tiaprost-13-enoic acid methyl ester] | −3 |  |  |  | −43 | −4 | −41 |  |  |  | 
4 | O=C(O)CCCCCCN1C(=O)CC[C@@H]1CC[C@@H](O)Cc1cccc(C(F)(F)F)c1 [Compound C] | −1 |  |  |  | −14 | 2 | −37 |  |  |  | 
5 | O=C(O)CCCSCCN1C(=O)CC[C@@H]1CC[C@@H](O)c1cccc(Oc2cccc(F)c2)c1 [Compound D] | −5 |  |  |  | −42 | −9 | −46 |  |  |  | 
6 | Cc1[nH]c(=O)c(C#N)cc1-c1ccncc1 [Milrinone, milrinone] | 23 |  |  |  |  | 38 |  | the degree of the improvement of the survival rate was small | did not improve DWS | showed a strong left ventricular systolic effect | 
7 | O=C(NCCO[N+](=O)[O-])c1cccnc1 [Nicorandil, nicorandil] | −7 |  |  |  |  |  |  |  |  |  | 
8 | O=[N+]([O-])OCC(CO[N+](=O)[O-])O[N+](=O)[O-] [Nitroglycerin, nitroglycerin] | −8 |  |  |  |  |  |  |  |  |  | 
